{"source": "patent US20260124201A1", "about": "“CYCLOPENTANE COMPOUND” (Kissei Pharmaceutical Co., Ltd., priority 2022, published 2026)"}
{"target": "T1, human OX2R (Homo sapiens, UniProt O43614)", "T1 construct": "expressed in transfected cells", "T1 sequence (O43614 1-444)": "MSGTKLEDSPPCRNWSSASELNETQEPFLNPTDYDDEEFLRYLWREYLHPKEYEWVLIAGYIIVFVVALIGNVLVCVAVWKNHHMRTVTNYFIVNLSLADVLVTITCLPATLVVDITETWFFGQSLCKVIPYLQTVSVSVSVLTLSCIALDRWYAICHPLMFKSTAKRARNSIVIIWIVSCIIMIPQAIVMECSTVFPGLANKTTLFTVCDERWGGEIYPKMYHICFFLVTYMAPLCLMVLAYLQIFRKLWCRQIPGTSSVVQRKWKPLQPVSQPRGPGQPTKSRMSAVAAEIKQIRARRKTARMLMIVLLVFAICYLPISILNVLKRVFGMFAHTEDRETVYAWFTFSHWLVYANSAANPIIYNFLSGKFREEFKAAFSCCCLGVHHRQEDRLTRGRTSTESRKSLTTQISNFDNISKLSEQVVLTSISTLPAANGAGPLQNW", "assay": "Measurement of OX2R agonist activity (intracellular calcium concentration change, Fluo4-AM, FDSS 7000)", "format": "cell-based", "conditions": "compound concentration 10 μM; human OX2R-expressing CHO-K1 cells; 1 μM human orexin A peptide = 100%, medium alone = 0%", "excerpt": "The following abbreviations in the description, the figures and the tables have the following meanings, respectively. • AZADOL (registered trademark): 2-Hydroxy-2-azaadamantane • Boc2O: di-tert-butyl dicarbonate • DIPEA: N,N-diisopropylethylamine • DCM: dichloromethane • DMAP: 4-dimethylaminopyridine • DMF: N,N-dimethylformamide • DMSO: dimethylsulfoxide • Deoxo-Fluor: bis(2-methoxyethyl)-aminosulfur trifluoride • HATU: O-(7-azabenzotriazol-1-yl)-N,N,N′,N′-tetramethyluronium hexafluorophosphate • LDA: lithium diisopropylamide • MeCN: acetonitrile • Me4tBuXPhos: 2-di-tert-butylphosphino-3,4,5,6-tetramethyl-2′,4′,6′-triisopropyl-1,1′-biphenyl • MTBE: methyl tert-butyl ether • NMP: N-methylpyrrolidone • PdCl2(PPh3)2: dichlorobis(triphenylphosphine)palladium(II) • Pd(dba)2: bis(dibenzylideneacetone)palladium(0) • Pd2(dba)3: tris(dibenzylideneacetone)dipalladium(0) • Pd(dppf)Cl2: [1,1′-bis(diphenylphosphino)ferrocene]dichloropalladium(II) • Pd(PPh3)4: tetrakis(triphenylphosphine)palladium(0) • TEA: triethylamine • TFA: trifluoroacetic acid • THF: tetrahydrofuran • Xphos: 2-dicyclohexylphosphino-2′,4′,6′-triisopropylbiphenyl • Xphos Pd G3: (2-dicyclohexylphosphino-2′,4′,6′-triisopropyl-1,1′-biphenyl)[2-(2′-amino-1,1′-biphenyl)]palladium(II) methanesulfonic acid salt • 10% Pd/C: Palladium 10% on Carbon (wetted with ca. 55% water) • APS: aminopropylated silica gel • ODS: octadecyl-silylated silica gel • Method A: column chromatography with an aminopropylated silica gel column followed by a silica gel column • Chiral preparative column chromatography: chiral preparative column chromatography using YMC CHIRALART Cellulose-SB • Ref. No.: Reference Example Number • Str.: structural formula • Ex. No.: Example Number • Phys. data: physical data • ^1H-NMR: hydrogen nuclear magnetic resonance spectrum • CDCl3: chloroform-d1 • MS: mass spectrometry (The measured values in the tables were measured by electrospray ionization or multiionization using electrospray ionization-atmospheric pressure chemical ionization.) • Act.: activation rate of test substance at a compound concentration of 10 μM calculated by setting the fluorescence intensity obtained when human orexin A peptide was added at a concentration of 1 μM as 100% and the fluorescence intensity obtained when the medium alone was added as 0% • CHO: Chinese hamster ovary • HEPES: 2-[4-(2-hydroxyethyl)-1-piperazinyl]ethanesulfonic acid\nA human OX2R sequence (Accession No. NM_001526.4) was inserted into the multiple cloning site of pcDNA3.4 (Life Technologies Japan Ltd.) to clone a plasmid vector for human OX2R expression. The plasmid was introduced into CHO-K1 cells using Lipofectamine 2000 (Life Technologies Japan Ltd.). Two days later, the transgenic CHO-K1 cells were passaged into 175T flasks and cultured selectively for 6 days. As a selection medium, Ham's F-12 Nutrient Mix (Life Technologies Japan Ltd.), containing Geneticin (registered trademark) (Life Technologies Japan Ltd.) at a final concentration of 1 mg/mL and inactivated fetal bovine serum (Biowest) at a final concentration of 10%, was used. After the selective culture, the cells were reseeded into 96-well plates, and a human OX2R-expressing cell line was obtained by limiting dilution.\nThe agonist effects of test substances on human OX2R were evaluated using the intracellular calcium concentration-change upon stimulation as an indicator. A day before measurement of the intracellular calcium concentrations, human OX2R-expressing cells suspended in a medium were seeded into 384-well plates at 5×10^3 cells/50 μL/well and cultured overnight in an incubator set at 37° C. and 5% CO2. After incubation, the medium was removed and replaced with 20 μL of a loading buffer. […]", "units": {"Act. (%): activation rate of test substance": "%"}}
{"smiles": "CON(C)C(=O)[C@@]1(Cc2cccc(-c3ncc(N(C)C)cn3)c2)CC[C@H](NS(C)(=O)=O)C1", "note": "(relative stereo) [Example 21, (1R*,3S*)-1-(3-(5-(Dimethylamino)pyrimidin-2-yl)benzyl)-N-methoxy-N-methyl-3-(methylsulfonamido)cyclopentane-1-carboxamide]", "Act. (%): activation rate of test substance": 48}
{"smiles": "COc1ccc(C[C@]2(C(=O)N(C)OC)CC[C@H](NS(C)(=O)=O)C2)cc1-c1ncc(F)cn1", "note": "[Example 56, (1R,3S)-1-(3-(5-Fluoropyrimidin-2-yl)-4-methoxybenzyl)-N-methoxy-N-methyl-3-(methylsulfonamido)cyclopentane-1-carboxamide]", "Act. (%): activation rate of test substance": 51}
{"smiles": "CON(C)C(=O)[C@@]1(Cc2ccc(F)c(-c3ncc(C)cn3)c2)CC[C@H](NS(C)(=O)=O)C1", "note": "(relative stereo) [Example 24]", "Act. (%): activation rate of test substance": 83}
{"smiles": "CON(C)C(=O)[C@@]1(Cc2cccc(-c3ncc(F)cn3)c2)C[C@H](F)[C@H](NS(=O)(=O)C2CC2)C1", "note": "[Example 60, (1R,3R,4S)-3-(Cyclopropanesulfonamido)-4-fluoro-1-(3-(5-fluoropyrimidin-2-yl)benzyl)-N-methoxy-N-methylcyclopentane-1-carboxamide]", "Act. (%): activation rate of test substance": 94}
{"smiles": "CON(C)C(=O)[C@@]1(Cc2cccc(-c3ncc(F)cn3)c2)C[C@@H](C)[C@H](NS(C)(=O)=O)C1", "note": "(relative stereo) [Example 44, (1R*,3R*,4R*)-1-(3-(5-Fluoropyrimidin-2-yl)benzyl)-N-methoxy-N,3-dimethyl-4-(methylsulfonamido)cyclopentane-1-carboxamide]", "Act. (%): activation rate of test substance": 96}
{"smiles": "CON(C)C(=O)[C@]1(Cc2cccc(-c3ncccn3)c2)C[C@@H](NS(C)(=O)=O)C(F)(F)C1", "note": "(relative stereo) [Example 40, (1R*,4R*)-3,3-Difluoro-N-methoxy-N-methyl-4-(methylsulfonamido)-1-(3-(pyrimidin-2-yl)benzyl)cyclopentane-1-carboxamide]", "Act. (%): activation rate of test substance": 88}
{"smiles": "CS(=O)(=O)N[C@H]1CC[C@](Cc2cccc(-c3ccccc3)c2)(C(N)=O)C1", "note": "(relative stereo) [Example 72, (1R*,3S*)-1-([1,1′-Biphenyl]-3-ylmethyl)-3-(methylsulfonamido)cyclopentane-1-carboxamide]", "Act. (%): activation rate of test substance": 23}
{"smiles": "CCS(=O)(=O)N[C@@H]1C[C@@](Cc2ccc(Cl)c(-c3ncc(F)cn3)c2)(C(=O)N(C)OC)C[C@@H]1F", "note": "[Example 63, (1R,3R,4S)-1-(4-Chloro-3-(5-fluoropyrimidin-2-yl)benzyl)-3-(ethylsulfonamido)-4-fluoro-N-methoxy-N-methylcyclopentane-1-carboxamide]", "Act. (%): activation rate of test substance": 96}
{"smiles": "CON(C)C(=O)[C@@]1(Cc2ccc(O)c(-c3ncc(F)cn3)c2)C[C@H](F)[C@H](NS(C)(=O)=O)C1", "note": "(relative stereo) [Example 39, (1R*,3S*,4R*)-3-Fluoro-1-(3-(5-fluoropyrimidin-2-yl)-4-hydroxybenzyl)-N-methoxy-N-methyl-4-(methylsulfonamido)cyclopentane-1-carboxamide]", "Act. (%): activation rate of test substance": 91}
{"smiles": "CS(=O)(=O)N[C@H]1CC[C@](Cc2cccc(-c3ccccc3)c2)(C(=O)NCC(F)(F)F)C1", "note": "(relative stereo) [Example 74, (1R*,3S*)-1-([1,1′-Biphenyl]-3-ylmethyl)-3-(methylsulfonamido)-N-(2,2,2-trifluoroethyl)cyclopentane-1-carboxamide]", "Act. (%): activation rate of test substance": 33}
{"smiles": "CON(C)C(=O)[C@@]1(Cc2cccc(-c3ncccn3)c2)C[C@@H](F)[C@H](NS(C)(=O)=O)C1", "note": "(relative stereo) [Example 32, (1R*,3R*,4R*)-3-Fluoro-N-methoxy-N-methyl-4-(methylsulfonamido)-1-(3-(pyrimidin-2-yl)benzyl)cyclopentane-1-carboxamide]", "Act. (%): activation rate of test substance": 89}
{"smiles": "CCS(=O)(=O)N[C@@H]1C[C@@](Cc2ccc(F)c(-c3ncc(F)cn3)c2)(C(=O)N(C)OC)C[C@@H]1F", "note": "(relative stereo) [Example 36, (1R*,3R*,4S*)-3-(Ethylsulfonamido)-4-fluoro-1-(4-fluoro-3-(5-fluoropyrimidin-2-yl)benzyl)-N-methoxy-N-methylcyclopentane-1-carboxamide]", "Act. (%): activation rate of test substance": 84}
{"smiles": "CS(=O)(=O)N[C@H]1CC[C@](Cc2cccc(-c3ccccc3)c2)(C(=O)N2CCCC2C(F)(F)F)C1", "note": "(relative stereo) [Example 71, N-((1S*,3R*)-3-([1,1′-Biphenyl]-3-ylmethyl)-3-(2-(trifluoromethyl)pyrrolidine-1-carbonyl)cyclopentyl)methanesulfonamide]", "Act. (%): activation rate of test substance": 41}
{"smiles": "CON(C)C(=O)[C@@]1(Cc2cccc(-c3ncc(Cl)cn3)c2)CC[C@H](NS(C)(=O)=O)C1", "note": "(relative stereo) [Example 15, (1R*,3S*)-1-(3-(5-Chloropyrimidin-2-yl)benzyl)-N-methoxy-N-methyl-3-(methylsulfonamido)cyclopentane-1-carboxamide]", "Act. (%): activation rate of test substance": 86}
{"smiles": "CON(C)C(=O)[C@]1(Cc2cc(-c3ncc(F)cn3)ccc2F)C[C@@H](NS(C)(=O)=O)C(F)(F)C1", "note": "(relative stereo) [Example 43]", "Act. (%): activation rate of test substance": 93}
{"smiles": "CON(C)C(=O)[C@]1(Cc2ccc(F)c(-c3ncc(F)cn3)c2)C[C@@H](NS(C)(=O)=O)C(F)(F)C1", "note": "(relative stereo) [Example 42]", "Act. (%): activation rate of test substance": 87}
{"smiles": "CON(C)C(=O)[C@@]1(Cc2ccc(F)c(-c3ncc(F)cn3)c2)C[C@@H](F)[C@H](NS(C)(=O)=O)C1", "note": "[Example 64, (1R,3R,4R)-3-Fluoro-1-(4-fluoro-3-(5-fluoropyrimidin-2-yl)benzyl)-N-methoxy-N-methyl-4-(methylsulfonamido)cyclopentane-1-carboxamide]", "Act. (%): activation rate of test substance": 101}
{"smiles": "CNS(=O)(=O)N[C@H]1CC[C@](Cc2cccc(-c3ccccc3)c2)(C(=O)N(C)OC)C1", "note": "(relative stereo) [Example 6, (1R*,3S*)-1-([1,1′-Biphenyl]-3-ylmethyl)-N-methoxy-N-methyl-3-((N-methylsulfamoyl)amino)cyclopentane-1-carboxamide]", "Act. (%): activation rate of test substance": 92}
{"smiles": "CON(C)C(=O)[C@@]1(Cc2ccc(F)c(-c3ncc(F)cn3)c2)CC[C@H](NS(=O)(=O)C(F)F)C1", "note": "[Example 51, (1R,3S)-3-((Difluoromethyl)sulfonamido)-1-(4-fluoro-3-(5-fluoropyrimidin-2-yl)benzyl)-N-methoxy-N-methylcyclopentane-1-carboxamide]", "Act. (%): activation rate of test substance": 98}
{"smiles": "CON(C)C(=O)[C@@]1(Cc2cccc(-c3ccccc3C#N)c2)CC[C@H](NS(C)(=O)=O)C1", "note": "(relative stereo) [Example 10, (1R*,3S*)-1-((2′-Cyano-[1,1′-biphenyl]-3-yl)methyl)-N-methoxy-N-methyl-3-(methylsulfonamido)cyclopentane-1-carboxamide]", "Act. (%): activation rate of test substance": 41}
